# Measured values reported in patent US20070191476A1, “Antioxidant Components for Reduction of Nucleic Acid Damage in Companion Animals” (Mars, Incorporated, priority 2001, published 2007).
# Columns and labels:
# feline leukocytes = test system: feline leukocytes
# Procedure: (§1) All cats and dogs were housed at the Waltham Centre for Pet Nutrition, in conditions resembling those of pet cats and dogs, and were fed commercially available, complete diets throughout the study period. Fasted blood samples (5 ml) were drawn from the jugular vein of 12 healthy adult cats (7.2±4.8 years) and 12 healthy adult dogs (4.5±2.3 years) into lithium herparin vials and diluted 1:1 in PBS. Leukocytes were isolated over Histopaque 1083 gradients (Sigma, UK) by centrifugation at 1000 g for 40 minutes. Leukocytes were washed twice in 10 mls PBS and centrifuged at 700 g for 10 minutes before counting and storing at 1×10^6 cells/ml in 90% fetal calf serum (Sigma) and 10% dimethyl sulphoxide (Sigma) at −80° C. until required.
# (§2) DNA damage was induced in vitro by exposing the leukocytes to a range of H2O2 concentrations (0-250 μM diluted in PBSa) to determine the optimal level of H2O2 required to induce a significant increase in DNA damage above background endogenous DNA damage levels. Leukocytes were thawed rapidly in a 37° C. water bath, washed twice in PBSa, centrifuged at 700 g for 15 minutes and resuspended in PBSa at […]. Cells were re-suspended in 0 μM, 10 μM, 50 μM, 100 μM and 250 μM H2O2 in PBSa and incubated on ice for 5 minutes. Treated leukocytes were centrifuged at 700 g for 15 minutes at 4° C. ready for slide preparation.
# (§3) Two layers of agarose were prepared. For the first layer, 85 μl 1% (w/v) high-melting point (HMP) agarose (Sigma) prepared at 95° C. in PBSa was pipetted onto fully frosted microscope slides, covered with an 18×18 mm coverslip and allowed to set at 4° C. for 10 minutes. Untreated and hydrogen peroxide-treated leukocytes were washed twice in PBS, centrifuged at 700 g for 15 minutes and resuspended at 2×10^5 in 85 μl 1% (w/v) low melting point (LMP) agarose (Sigma). The cell suspension was then pipetted over the set HMP agarose layer, covered with an 18×18 mm coverslip and allowed to set at 4° C. for 10 minutes. After the coverslips were removed, the slides were immersed in freshly prepared cold lysis solution.
# canine leukocytes = test system: canine leukocytes
# Procedure: as §1, §2, §3
# [1] = 10-250 μM H2O2, 5 minutes, p<0.001
compound,measurement,setting,value
"OO [H2O2, hydrogen peroxide]",DNA damage in relation to all other concentrations of H2O2,"feline leukocytes; 250 μM H2O2, FIG. 1",significant increases in DNA damage
same,DNA damage (visual comet score) versus untreated samples,feline leukocytes; [1],Statistically significant increases in DNA damage
same,DNA damage in relation to all other concentrations of H2O2,"canine leukocytes; 250 μM H2O2, FIG. 2",significant increases in DNA damage
same,DNA damage (visual comet score) versus untreated samples,canine leukocytes; [1],Statistically significant increases in DNA damage
